Data published in the NIST ThermoML archive (doi:10.1016/j.jct.2017.03.026).
Values joined by “and” are separate entries in the source; they are usually repeats but may differ in a detail not shown here. Equal entries are not always repeated.

Test: molar heat capacity at constant pressure
Conditions: 101.33 kPa, Crystal, Small (less than 1 g) adiabatic calorimetry

O.O.O.O.O.O=S(=O)([O-])[O-].[Cu+2] [copper(II) sulfate pentahydrate]
Conditions	molar heat capacity at constant pressure
101.73 K	117.59 J/K/mol
101.86 K	118.59 J/K/mol
102.08 K	117.97 J/K/mol
102.79 K	118.7 J/K/mol
102.91 K	119.62 J/K/mol
103.83 K	120.63 J/K/mol
103.84 K	119.78 J/K/mol
103.89 K	120.08 J/K/mol
103.96 K	120.8 J/K/mol
104.14 K	120.09 J/K/mol
104.36 K	121.29 J/K/mol
104.89 K	120.9 J/K/mol
105.01 K	121.85 J/K/mol
105.93 K	122.01 J/K/mol
106.06 K	122.97 J/K/mol
106.2 K	122.39 J/K/mol
106.46 K	123.36 J/K/mol
106.97 K	123.24 J/K/mol
106.98 K	123.14 J/K/mol
107.12 K	123.92 J/K/mol
107.46 K	124.56 J/K/mol
108.03 K	124.25 J/K/mol
108.17 K	125.23 J/K/mol
108.27 K	124.44 J/K/mol
109.08 K	125.36 J/K/mol
109.1 K	126.13 J/K/mol
109.23 K	126.17 J/K/mol
110 K	126.2 J/K/mol
110.06 K	126.42 J/K/mol
110.13 K	126.46 J/K/mol
110.29 K	127.26 J/K/mol
110.33 K	126.54 J/K/mol
110.57 K	127.78 J/K/mol
111.18 K	127.44 J/K/mol
111.37 K	128.56 J/K/mol
111.74 K	128.74 J/K/mol
112.23 K	128.52 J/K/mol
112.4 K	128.7 J/K/mol
112.43 K	129.57 J/K/mol
113.16 K	129.6 J/K/mol
113.29 K	129.54 J/K/mol
113.49 K	130.69 J/K/mol
113.69 K	130.98 J/K/mol
114.34 K	130.68 J/K/mol
114.38 K	131.41 J/K/mol
114.47 K	130.81 J/K/mol
114.56 K	131.62 J/K/mol
115.39 K	131.78 J/K/mol
115.62 K	132.81 J/K/mol
116.25 K	132.9 J/K/mol
116.44 K	132.81 J/K/mol
116.54 K	133.18 J/K/mol
116.68 K	133.94 J/K/mol
116.81 K	134.01 J/K/mol
117.02 K	134.2 J/K/mol
117.5 K	133.84 J/K/mol
117.75 K	134.93 J/K/mol
118.55 K	134.96 J/K/mol
118.62 K	135 J/K/mol
118.81 K	136.22 J/K/mol
119.36 K	135.88 J/K/mol
119.63 K	136.14 J/K/mol
119.67 K	137.03 J/K/mol
119.88 K	137.17 J/K/mol
119.93 K	137.32 J/K/mol
120 K	136.3 J/K/mol
120.69 K	136.94 J/K/mol and 137.14 J/K/mol
120.95 K	138.19 J/K/mol
121.74 K	138.15 J/K/mol
122.02 K	139.11 J/K/mol
122.32 K	139.58 J/K/mol
122.46 K	138.97 J/K/mol
122.8 K	139.17 J/K/mol and 139.26 J/K/mol
123.07 K	140.4 J/K/mol
123.09 K	140.26 J/K/mol
123.86 K	140.26 J/K/mol
124.16 K	141.38 J/K/mol
124.88 K	141.31 J/K/mol
124.91 K	141.44 J/K/mol
124.97 K	142.22 J/K/mol
125.23 K	142.7 J/K/mol
125.57 K	142.11 J/K/mol
125.97 K	142.63 J/K/mol
126.2 K	143.67 J/K/mol
126.3 K	143.66 J/K/mol
126.97 K	143.36 J/K/mol
127.03 K	143.46 J/K/mol
127.37 K	144.66 J/K/mol
127.62 K	145 J/K/mol
128.08 K	144.35 J/K/mol
128.47 K	145.88 J/K/mol
128.7 K	145.15 J/K/mol
129.05 K	145.44 J/K/mol
129.14 K	145.37 J/K/mol
129.38 K	146.91 J/K/mol
129.54 K	146.79 J/K/mol
130 K	146.3 J/K/mol
130.2 K	146.58 J/K/mol
130.3 K	147.58 J/K/mol
130.62 K	147.67 J/K/mol
131.13 K	147.52 J/K/mol
131.25 K	147.55 J/K/mol
131.69 K	149.05 J/K/mol
131.82 K	148.2 J/K/mol
132.31 K	148.61 J/K/mol
132.53 K	150.01 J/K/mol
132.77 K	150.08 J/K/mol
132.95 K	150.13 J/K/mol
133.22 K	149.57 J/K/mol
133.37 K	149.93 J/K/mol
133.85 K	151.35 J/K/mol
134.43 K	150.8 J/K/mol
134.92 K	152.13 J/K/mol
134.93 K	151.23 J/K/mol
135.3 K	151.53 J/K/mol
135.49 K	151.95 J/K/mol
135.59 K	152.75 J/K/mol
135.69 K	153.09 J/K/mol
136 K	153.04 J/K/mol
136.56 K	152.7 J/K/mol
137.07 K	154.23 J/K/mol
137.39 K	153.55 J/K/mol
137.61 K	153.75 J/K/mol
138.05 K	154.26 J/K/mol
138.14 K	155.44 J/K/mol
138.23 K	155.31 J/K/mol
138.67 K	154.9 J/K/mol
138.85 K	156.32 J/K/mol
139.22 K	156.25 J/K/mol
139.47 K	155.53 J/K/mol
139.72 K	155.9 J/K/mol
140 K	156 J/K/mol
140.3 K	157.18 J/K/mol
140.78 K	156.94 J/K/mol
140.87 K	157.92 J/K/mol
141.16 K	157.45 J/K/mol
141.37 K	158.29 J/K/mol
141.56 K	157.55 J/K/mol
141.83 K	157.84 J/K/mol
142.01 K	159.46 J/K/mol
142.45 K	159.47 J/K/mol
142.89 K	158.79 J/K/mol
143.51 K	160.83 J/K/mol
143.52 K	160.62 J/K/mol
143.64 K	159.6 J/K/mol
143.94 K	159.82 J/K/mol
144.28 K	160.35 J/K/mol
144.6 K	161.74 J/K/mol
144.99 K	160.85 J/K/mol
145.18 K	162.59 J/K/mol
145.7 K	162.72 J/K/mol
145.73 K	161.63 J/K/mol
146.04 K	161.99 J/K/mol
146.16 K	163.13 J/K/mol
146.78 K	163.89 J/K/mol
147.09 K	162.84 J/K/mol
147.4 K	163.32 J/K/mol
147.81 K	163.57 J/K/mol
